Results taken from US20150148311A1, “NON-SYSTEMIC TGR5 AGONISTS” (Ardelyx, Inc., priority 2011, published 2015).

Columns and labels:
total GLP-1 = experiment: In vivo GLP-1 secretion, plasma total GLP-1 8 h post dose; settings: Mus musculus, C57BL/6 male mice, food removed, plasma total GLP-1 eight hours after dosing, read-out: GLP-1 fold change over vehicle, Mean
Description: (§1) Eight hours later, each mouse was heavily anesthetized with isoflurane, the peritoneal cavity was opened and the gallbladder, with its entire contents, was carefully excised and weighed. Blood was collected from the left ventricle of the heart and processed to plasma in EDTA-coated tubes containing aprotinin and DPPIV inhibitor for measurement of total GLP-1 (K150FCC; Meso Scales Discovery, Gaithersburg Md.).

[1] = Compound plasma concentration, LC-MS/MS, 8 h post dose; type: in vivo; settings: 30 mg/kg; for Number of Mice with Plasma Concentration < LLOQ: mice below LLOQ / mice in group; for concentration at 8 h: male, C57BL/6, mouse, mice, plasma, read-out: Mean Example Plasma Concentration
Outline: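 Blood was taken from the left ventricle 8 h after dosing, under isoflurane anesthesia, into EDTA tubes containing aprotinin and DPPIV inhibitor. Plasma was protein-precipitated with acetonitrile containing an internal standard, and supernatants were analyzed by LC-MS/MS against a plasma standard curve.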

human TGR5 = target: T1, human TGR5 (Homo sapiens, UniProt Q8TDU6); experiment: Cell-based TGR5 assay, HEK293 cells stably expressing human TGR5, cAMP by HTRF; settings: HEK293 cells stably expressing human TGR5, 30 min at 37 C, 0.05 nM to 10 μM, read-out: pEC50 Human TGR5 (converted)
T1 construct: expressed in transfected cells
T1 sequence (Q8TDU6 1-330): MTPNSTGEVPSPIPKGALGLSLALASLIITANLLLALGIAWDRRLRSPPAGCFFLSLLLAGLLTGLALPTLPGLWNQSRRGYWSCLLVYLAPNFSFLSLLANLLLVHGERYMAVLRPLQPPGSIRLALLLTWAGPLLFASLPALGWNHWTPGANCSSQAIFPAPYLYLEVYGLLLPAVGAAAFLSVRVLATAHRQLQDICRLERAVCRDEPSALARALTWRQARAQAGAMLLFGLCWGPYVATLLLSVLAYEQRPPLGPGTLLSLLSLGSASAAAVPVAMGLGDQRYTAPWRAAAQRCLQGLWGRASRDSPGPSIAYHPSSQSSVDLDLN
Outline: (§2)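 cAMP HTRF read-out, converted to concentration via standard curve, after a 30 min, 37 °C compound exposure in HBSS with 10 mM HEPES pH 7.4 and 0.5 mM IBMX, compounds serially diluted 3-fold from 10 mM DMSO stock then 100-fold. Cells: stable human TGR5 HEK293, or NCI-H716 expressing TGR5 endogenously.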

human IBAT = target: T2, human IBAT (Homo sapiens, UniProt Q12908); experiment: IBAT counter screen, [3H]taurocholic acid uptake in IBAT-transfected HEK293 cells; type: cell-based; settings: read-out: pEC50 human IBAT (converted)
T2 construct: expressed in transfected cells; host or cells: HEK293
T2 sequence (Q12908 1-348): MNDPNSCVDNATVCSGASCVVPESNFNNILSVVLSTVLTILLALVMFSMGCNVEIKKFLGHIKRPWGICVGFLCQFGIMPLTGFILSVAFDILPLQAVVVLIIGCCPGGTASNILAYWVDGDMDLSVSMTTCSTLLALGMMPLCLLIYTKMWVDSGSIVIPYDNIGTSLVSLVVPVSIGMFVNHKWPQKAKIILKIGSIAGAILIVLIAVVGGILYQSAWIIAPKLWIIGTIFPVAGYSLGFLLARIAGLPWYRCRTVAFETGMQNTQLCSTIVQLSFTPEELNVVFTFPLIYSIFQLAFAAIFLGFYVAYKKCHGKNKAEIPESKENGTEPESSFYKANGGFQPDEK
Protocol: Following a 40-min incubation, the solution was removed, and the cells were washed twice with uptake buffer. Cells were lysed by addition of 20 μL 0.1% Tween 80 followed by 100 μL scintillation fluid and counted using a TopCount (Perkin Elmer).

[2] = target: T3, endogenously expressed TGR5 in NCI H716 (Homo sapiens, UniProt Q8TDU6); experiment: Cell-based TGR5 assay, NCI-H716 cells endogenously expressing human TGR5, cAMP by HTRF; settings: 30 min at 37 C, 22 nM to 50 μM, read-out: pEC50 endogenously expressed TGR5 in NCI H716 (converted)
T3 construct: human caecum carcinoma cell line NCI-H716 which endogenously expresses human TGR5; endogenous in cells; host or cells: NCI-H716
T3 sequence (Q8TDU6 1-330): T1 sequence (Q8TDU6 1-330)
Outline: as §2

[3] = Compound concentration in gall bladder, LC-MS/MS, 8 h post dose; type: in vivo; settings: 30 mg/kg; for Number of Mice with Gallbladder Concentration < LLOQ: mice below LLOQ / mice in group; for concentration at 8 h: male, C57BL/6, mouse, with contents, mice, gallbladder homogenate, read-out: Mean Example Gallbladder Concentration
Outline: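 Gallbladder with its contents excised from isoflurane-anesthetized mice 8 h after dosing and homogenized in water. Homogenate diluted 1:5, precipitated with acetonitrile and measured by LC-MS/MS. Levels interpolated from per-compound standard curves in vehicle-treated gallbladder homogenate.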

C57BL/6 male mice = experiment: In vivo gallbladder measurement (weight) 8 h post dose; settings: 30 mg/kg; for Gallbladder weight/body weight fold change over vehicle, Significance: 8 h, vs. vehicle, one-way ANOVA, Dunnett's test; for Gallbladder weight/body weight fold change over vehicle, Mean: food removed, eight hours after dosing
Description: as §1

human FXR = target: T4, human FXR (Homo sapiens, UniProt Q96RI1); experiment: FXR counter screen, cell-based luciferase reporter assay; settings: cells expressing human FXR and FXR-responsive luciferase reporter, 0.4 to 50 μM test compound; read-out: pEC50 human FXR (converted)
T4 construct: purchased Indigo Biosciences (State College, Pa.)
T4 sequence (Q96RI1 1-486): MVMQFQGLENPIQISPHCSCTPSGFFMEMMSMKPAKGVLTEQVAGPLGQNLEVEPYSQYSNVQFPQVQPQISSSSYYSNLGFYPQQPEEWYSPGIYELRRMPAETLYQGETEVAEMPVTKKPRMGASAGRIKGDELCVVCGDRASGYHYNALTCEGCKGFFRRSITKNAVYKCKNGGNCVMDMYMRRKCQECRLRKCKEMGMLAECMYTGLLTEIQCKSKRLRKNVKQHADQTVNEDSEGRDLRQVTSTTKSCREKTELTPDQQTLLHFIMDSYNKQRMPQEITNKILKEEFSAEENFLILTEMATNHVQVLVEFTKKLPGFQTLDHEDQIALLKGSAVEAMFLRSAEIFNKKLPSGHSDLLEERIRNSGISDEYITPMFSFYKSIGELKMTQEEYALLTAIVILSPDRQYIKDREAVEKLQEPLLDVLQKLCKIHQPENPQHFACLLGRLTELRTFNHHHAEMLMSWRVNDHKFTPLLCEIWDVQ
Protocol: FXR: The ability of test compounds to activate FXR (NR1H4) was measured using a cell-based assay kit obtained from Indigo Biosciences (State College, Pa.).

Row | Number of Mice with Plasma Concentration < LLOQ [1] | concentration at 8 h [1] | EC50 (human TGR5) | EC50 (human IBAT) | EC50 [2] | Number of Mice with Gallbladder Concentration < LLOQ [3] | concentration at 8 h [3] | EC50 (human FXR) | Structure (SMILES) | response vs control in vivo at 30 mg/kg (total GLP-1) | Gallbladder weight/body weight fold change over vehicle, Significance (C57BL/6 male mice) | Gallbladder weight/body weight fold change over vehicle, Mean (C57BL/6 male mice)
1 | 2/8 | 0.7 ng/mL | < 100 nM | > 25100 nM | < 100 nM | 0/8 | 100 nM | – | O=C(CCCCc1cc(Cl)c(CNC2(C(=O)N3CCN(C4CC4)c4ccccc43)CC2)cc1Cl)NC[C@H](O)[C@@H](O)[C@H](O)[C@H](O)CO [Example 218] | 140% | n.s. | 1.0 fold change over vehicle
2 | 5/8 | 2.3 ng/mL | 126 to 1000 nM | – | – | 0/8 | 3300 nM | – | O=C(N1CCN(C2CC2)c2ccccc21)C1(NCc2cc(Cl)cc(O)c2Cl)CC1 [Example 167, (4-cyclopropyl-3,4-dihydroquinoxalin-1(2H)-yl)(1-((2,5-dichloro-3-hydroxybenzyl)amino)cyclopropyl)methanone] | 130% | n.s. | 1.3 fold change over vehicle
3 | 2/8 | 2.2 ng/mL | < 100 nM | – | – | 0/8 | 600 nM | – | O=C(N1CCN(C2CC2)c2ccccc21)C1(NCc2cc(Cl)c(O)cc2Cl)CC1 [Example 165, (4-Cyclopropyl-3,4-dihydroquinoxalin-1(2H)-yl)(1-((2,5-dichloro-4-hydroxybenzyl)amino)cyclopropyl)methanone] | 120% | n.s. | 1.5 fold change over vehicle

Continued, compound first:

Row | Structure (SMILES) | Number of Mice with Plasma Concentration < LLOQ [1] | concentration at 8 h [1] | EC50 (human TGR5) | EC50 (human IBAT) | EC50 [2] | Number of Mice with Gallbladder Concentration < LLOQ [3] | concentration at 8 h [3] | EC50 (human FXR) | response vs control in vivo at 30 mg/kg (total GLP-1) | Gallbladder weight/body weight fold change over vehicle, Significance (C57BL/6 male mice) | Gallbladder weight/body weight fold change over vehicle, Mean (C57BL/6 male mice)
4 | O=C(CCCCc1cc(Cl)c(COC2(C(=O)N3CCN(C4CC4)c4ccccc43)CC2)cc1Cl)NC[C@H](O)[C@@H](O)[C@H](O)[C@H](O)CO [Example 193] | 5/8 | 5.2 ng/mL | < 100 nM | > 25100 nM | – | 0/8 | 900 nM | – | 90% | n.s. | 1.1 fold change over vehicle
5 | CN(C[C@H](O)[C@@H](O)[C@H](O)[C@H](O)CO)C(=O)CCc1cc(Cl)c(COC2(C(=O)N3CCN(C4CC4)c4ccccc43)CC2)cc1Cl [Example 80, 3-[2,5-dichloro-4-([1-[(4-cyclopropyl-1,2,3,4-tetrahydro-quinoxalin-1-yl)carbonyl]cyclopropoxy]methyl)phenyl]-N-methyl-N-[(2S,3R,4R,5R)-2,3,4,5,6-pentahydroxyhexyl]propanamide] | – | – | < 100 nM | – | 126 to 1000 nM | – | – | > 50100 nM | – | – | –
6 | CN(C(=O)C1(OCc2cc(Cl)c(CCCNC(=O)NC[C@H](O)[C@@H](O)[C@H](O)[C@H](O)CO)cc2Cl)CC1)c1ccccc1OC1CC1 [Example 96, N-(2-cyclopropoxyphenyl)-1-(2,5-dichloro-4-(3-(3-((2S,3R,4R,5R)-2,3,4,5,6-pentahydroxyhexyl)ureido)propyl)benzyloxy)-N-methylcyclopropanecarboxamide] | 8/8 | < 2 ng/mL | < 100 nM | – | < 100 nM | 0/8 | 1340 nM | – | 190% | n.s. | 0.8 fold change over vehicle
7 | O=C([C@@H]1CSCN1Cc1cc(Cl)cc(O)c1Cl)N1CCN(C2CC2)c2ccccc21 [Example 169, (R)-(4-cyclopropyl-3,4-dihydroquinoxalin-1(2H)-yl)(3-(2,5-dichloro-3-hydroxybenzyl)thiazolidin-4-yl)methanone] | 4/8 | 2.1 ng/mL | < 100 nM | – | – | 0/8 | 1200 nM | – | 150% | – | 1.9 fold change over vehicle
8 | CN(C(=O)C1(OCc2cc(Cl)c(CCCCCNC(=O)NC[C@H](O)[C@@H](O)[C@H](O)[C@H](O)CO)cc2Cl)CC1)c1ccccc1OC1CC1 [Example 258] | 7/8 | 9.4 ng/mL | < 100 nM | – | – | 0/8 | 700 nM | – | 110% | n.s. | 1.1 fold change over vehicle
9 | CN(C(=O)C1(OCc2cc(Cl)c(CCCCC(=O)NC[C@H](O)[C@@H](O)[C@H](O)[C@H](O)CO)cc2Cl)CC1)c1ccccc1OC1CC1 [Example 259] | 6/8 | 1.1 ng/mL | < 100 nM | – | – | 0/8 | 100 nM | – | 140% | n.s. | 0.9 fold change over vehicle
10 | CN(C[C@H](O)[C@@H](O)[C@H](O)[C@H](O)CO)C(=O)NCCCCOc1cc(Cl)c(CN2CSC[C@H]2C(=O)N2CCN(C3CC3)c3ccccc32)cc1Cl [Example 191] | 8/8 | < 0.5 ng/mL | < 100 nM | – | 126 to 1000 nM | 0/8 | 100 nM | – | 150% | n.s. | 1.0 fold change over vehicle
